{"source": "patent US11162123B2", "about": "“Glutamine synthetase reaction and method for quantifying ammonia utilizing the same” (ARKRAY, Inc., priority 2017, dated 2021)", "key": {"[1]": {"system": "glutamine synthetase", "method": "(§1) Reagent A was mixed with a sample immediately before the reaction, and then reagent B was added to the resulting mixture to perform the reaction. The ammonia concentration was measured based on the increase in the absorbance at 340 nm during the period of 300 seconds after the beginning of the reaction. To the sample, calcium was added at various concentrations (180, 340, 530, or 700 ppm). The liquid volumes of the reagents were as follows: reagent A, 140 μL; reagent B, 35 μL; sample, 10 μL.\nSubsequently, in what step calcium affects the ammonia measurement reaction was investigated. […] Since ADP is a substrate of ADP-dependent hexokinase, the effect of calcium in the sample on the reactions of enzymes excluding glutamine synthetase can be investigated. Similarly, each of G6P and NADH was added as a sample to the reaction system to investigate the reaction using G6P or NADH as a substrate."}, "[2]": {"system": "glutamine synthetase", "remark": "listed apart in the source", "method": "After mixing the components, a base material was impregnated therewith. After drying the base material, a test liquid (10,000 N-μg/dL aqueous ammonia solution supplemented with 0, 10, 30, 60, or 80 ppm calcium) was added thereto, followed by allowing the reaction to proceed at room temperature for 300 seconds and then measuring the reflectance (ΔR). By calculating the difference (ΔR) between the reflectance R of the sample to which calcium was not added and the reflectance R of each sample to which calcium was added, the effect of calcium in the ammonia measurement system can be investigated."}, "[3]": {"target": "Glutamine synthetase (GST) (Homo sapiens, UniProt P15104)", "sequence (P15104 whole entry, species assumed)": "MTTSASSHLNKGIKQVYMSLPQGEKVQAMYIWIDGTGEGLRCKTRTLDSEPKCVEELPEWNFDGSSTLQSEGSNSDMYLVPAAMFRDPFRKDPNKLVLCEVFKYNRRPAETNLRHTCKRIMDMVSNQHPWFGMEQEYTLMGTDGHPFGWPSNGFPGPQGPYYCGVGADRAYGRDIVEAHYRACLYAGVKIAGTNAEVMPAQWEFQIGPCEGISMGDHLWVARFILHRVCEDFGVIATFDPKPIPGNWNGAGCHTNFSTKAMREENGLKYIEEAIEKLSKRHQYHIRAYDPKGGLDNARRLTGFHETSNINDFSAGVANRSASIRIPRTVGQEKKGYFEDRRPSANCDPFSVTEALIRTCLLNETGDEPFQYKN", "details": "known from the art; cited from earlier work"}, "[4]": {"system": "enzymes excluding glutamine synthetase", "assay": "liquid reaction system with ADP, G6P or NADH added as sample (enzymes excluding glutamine synthetase)", "assay_type": "biochemical", "method": "as §1\nSince ADP is a substrate of ADP-dependent hexokinase, the effect of calcium in the sample on the reactions of enzymes excluding glutamine synthetase can be investigated. Similarly, each of G6P and NADH was added as a sample to the reaction system to investigate the reaction using G6P or NADH as a substrate."}}, "note": "Read-outs that look alike come from different tables or passages of the source.", "data": [{"smiles": "O=C(O)CN(CCN(CC(=O)O)CC(=O)O)CC(=O)O", "note": "[EDTA, ethylenediaminetetraacetic acid, reference compound]", "values": [{"measurement": "measured value of ammonia versus calcium concentration", "setting": "[1]; addition of EDTA (2.00 mM in reagent A), calcium 180-700 ppm in sample", "result": "does not change dependently on the calcium concentration"}, {"measurement": "change in reflectance (change in ΔR) caused by calcium", "setting": "[2]; addition of 5, 10 or 20 mM EDTA", "result": "improved the change in the reflectance"}]}, {"smiles": "CS(=N)(=O)CC[C@H](N)C(=O)O", "note": "(stereo partly drawn) [L-methionine sulfoximine]", "values": [{"measurement": "inhibition of glutamine synthetase", "setting": "[3]", "result": "inhibited"}]}, {"smiles": "[Ca+2]", "note": "[calcium]", "values": [{"measurement": "effect of calcium on measured value, ADP added as sample", "setting": "[4]; ADP as sample, with and without EDTA", "result": "disappearance of the effect of calcium"}, {"measurement": "effect of calcium on measured value, G6P or NADH added as sample", "setting": "[4]; G6P or NADH as sample", "result": "no effect of calcium was found"}, {"measurement": "step of the ammonia measurement reaction affected by calcium", "setting": "[1]; conclusion from substrate-addition experiments", "result": "affects glutamine synthetase in the first step"}, {"measurement": "measured value of ammonia versus calcium concentration", "setting": "[1]; no addition of EDTA, calcium 180, 340, 530 or 700 ppm in sample, absorbance 340 nm, 300 seconds", "result": "decreases dependently on the calcium concentration"}, {"measurement": "measured value (reflectance, ΔR) versus calcium concentration", "setting": "[2]; no EDTA, test liquid with 0, 10, 30, 60 or 80 ppm calcium, room temperature, 300 seconds", "result": "changed dependently on the calcium concentration"}]}, {"smiles": "CP(=O)(O)CC[C@H](N)C(=O)O", "note": "[phosphinothricin]", "values": [{"measurement": "inhibition of glutamine synthetase", "setting": "[3]", "result": "inhibited"}]}]}
